This passage reports CC50 and Activity results from ChEMBL document CHEMBL1147279, “6-Desmethoxyhormothamnione, a new cytotoxic styrylchromone from the marine cryptophyte Chrysophaeum taylori” (1989).

A short description of experiment [1]: Cytotoxicity against human 9KB cells. The following applies: read-out: LD50 (the source's name). In kind it is functional.
Another experiment relates to Staphylococcus aureus. Nature of the experiment: Antimicrobial activity against Staphylococcus aureus at 100 ug by paper disk assay. In kind it is functional, organism-based.
A further experiment relates to Escherichia coli. Description: Antimicrobial activity against Escherichia coli at 100 ug by paper disk assay. In kind it is functional, organism-based.
The next experiment has as its system Pseudomonas aeruginosa. Nature of the experiment: Antimicrobial activity against Pseudomonas aeruginosa at 100 ug by paper disk assay. Type of experiment: functional, organism-based.
The next experiment concerns Candida albicans. Description: Antimicrobial activity against Candida albicans at 100 ug by paper disk assay. Type of experiment: functional, organism-based.
The subject of a further experiment is Bacillus subtilis. Description: Antimicrobial activity against Bacillus subtilis at 100 ug by paper disk assay. In kind it is functional, organism-based.

In brackets after ≈: the same amount, converted by molar mass. Activity calls are given as the source filed them. No cut-off for these calls is given here.

Consider `COc1cc(O)c2c(=O)c(C)c(/C=C/c3cc(O)cc(O)c3)oc2c1OC`, for which, in experiment [1], the CC50 amounted to 1 µg/mL (≈ 2.7 µM). Besides, the result in the experiment with Staphylococcus aureus, in the experiment with Escherichia coli, in the experiment on Pseudomonas aeruginosa, in the experiment with Candida albicans and in the experiment on Bacillus subtilis was inactive.
